Literature values, collected in patent US10327463B2 (priority 2015, dated 2019).
Counter-ions that a name gives are not always drawn.

Key:
Listeria monocytogenes [1] = details: alone or with additional antimicrobials; turkey slurries with and without sodium nitrite
Clostridium species = details: cured products, processed meat formulations
Listeria monocytogenes [2] = details: maximum allowed level of 156 ppm, without adjunct antimicrobials

CC(=O)O [acetic acid or its salt, acetic acid]
inhibition of C. perfringens (C. perfringens): failed to inhibit C. perfringens

CC(=O)O.CC(=O)[O-].[Na+] [sodium diacetate]
level effective in controlling Listeria monocytogenes (Listeria monocytogenes [1]): 0.3-0.5%

O=NO [sodium nitrite]
level sufficient for the inhibition of Clostridium species (Clostridium species): approx. 50 ppm
inhibition of Listeria monocytogenes (Listeria monocytogenes [2]): insufficient for the inhibition of Listeria monocytogenes
